Assay results reported in publication PMC9430695.

Molecular target: T1, Sortase A (SrtA) (Staphylococcus aureus, UniProt Q2FV99)
T1 construct: SrtA residues Gln-60-Lys-206 (SrtA ΔN59), from S. aureus USA300, 6 × His tag
Assay: fluorescence quenching (KA); also FRET inhibition of purified SrtA, IC50 […]
Format: binding
Settings: read-out: fluorescence quenching (KA), IC50 31.20 μ (converted)

T1 sequence (Q2FV99 60-206): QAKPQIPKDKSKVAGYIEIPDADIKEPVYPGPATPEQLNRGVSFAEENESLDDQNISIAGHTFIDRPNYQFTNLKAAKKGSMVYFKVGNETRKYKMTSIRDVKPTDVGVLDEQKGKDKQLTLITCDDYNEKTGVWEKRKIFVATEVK

For `O=C(O)[C@H]1O[C@@H](Oc2c(O)cc(O)c3c(=O)c(O)c(-c4ccc(O)c(O)c4)oc23)[C@H](O)[C@@H](O)[C@@H]1O` [hibifolin], the Kd was 58.1 µM.

Molecular target: T1, Sortase A (SrtA)
Assay: biochemical
Set-up: FRET cleavage of Abz-LPATG-Dap(Dnp)-NH2 by purified SrtA, fluorescence 309/420 nm
Settings: library screen; read-out: Relative inhibition rate (%)
Experimental: Fluorescence resonant energy transfer (FRET) was used to screen the effect of the SrtA inhibitor ([22]). Purified SrtA (4 μM) and hibifolin with different concentrations were added into a 100 μL reaction system, incubating at 37°C for 1 h. A fluorescent substrate peptide Abz-LPATG-Dap (Dnp)-NH2 (10 μM) (Beijing, China) was added to initiate the reaction. After incubating at 37°C for 20 min, the fluorescent microplate reader was measured with the excitation wavelength at 309 nm and the emission wavelength at 420 nm. Subsequently, a gradient concentration inhibition curve was performed and IC50 was calculated. When the inhibitory activity was greater than 60%, the compound was considered a potential inhibitor. The representative list of our nature compounds library has been compiled in Table S3 in Supplemental File 1 along with the results of the initial screening.

In order of rising inhibition at 64 µg/mL:
1. COc1cc(O)c2c(=O)cc(-c3ccc(OC)c(-c4c(O)cc(O)c5c(=O)cc(-c6ccc(O)cc6)oc45)c3)oc2c1 [Ginkgetin]  0.25%
2. C=CCc1cc(OC)c(O[C@@H](C)[C@H](O)c2ccc(O)c(OC)c2)c(OC)c1 [Myrislignan]  1.72%
3. Oc1cc(O)c2c(c1)O[C@H](c1ccc(O)c(O)c1)[C@H](O)[C@H]2c1c(O)cc(O)c2c1O[C@H](c1ccc(O)c(O)c1)[C@H](O)C2 [Procyanidin B2]  13.8%
4. O=c1c(-c2ccc(O[C@@H]3O[C@H](CO)[C@@H](O)[C@H](O)[C@H]3O)cc2)coc2cc(O)cc(O)c12 [Sophoricoside]  14.4%
5. COc1ccc([C@@H]2OC[C@H]3[C@@H]2CO[C@@H]3c2ccc(O[C@@H]3O[C@H](CO)[C@@H](O)[C@H](O)[C@H]3O)c(OC)c2)cc1OC [Forsythin]  14.8%
6. COc1cc(C[C@H](C)[C@H](C)Cc2ccc3c(c2)OCO3)ccc1O [Anwulignan]  15.6%
7. COc1cc2c(c(OC)c1OC)-c1c(cc3c(c1OC)OCO3)[C@H](OC(C)=O)[C@H](C)[C@H](C)C2 [Kadsurin]  16.9%
8. COc1ccc(-c2cc(=O)c3c(O)cc(O)cc3o2)cc1-c1c(O)cc(O)c2c(=O)cc(-c3ccc(O)cc3)oc12 [Bilobetin]  17.8%
9. COc1c(O[C@@H]2O[C@H](CO)[C@@H](O)[C@H](O)[C@H]2O)cc2occ(-c3ccc(O)cc3)c(=O)c2c1O [Tectoridin]  20%
10. COc1ccc(-c2cc(=O)c3c(OC)c(OC)c(OC)cc3o2)cc1OC [Sinensetin]  23.8%
11. O=c1c(O[C@@H]2O[C@H](CO)[C@@H](O)[C@H](O)[C@H]2O[C@@H]2OC[C@@H](O)[C@H](O)[C@H]2O)c(-c2ccc(O)cc2)oc2cc(O)cc(O)c12 [Leucoside]  27.3%
12. COc1ccc(-c2cc(=O)c3c(OC)cc(OC)c(OC)c3o2)cc1 [5,7,8,4'-Tetramethoxyflavone]  27.4%
13. COc1cc(-c2coc3cc(O)c(OC)c(O)c3c2=O)cc(O)c1OC [Irigenin]  30.3%
14. COc1ccc(-c2oc3cc(OC)cc(O)c3c(=O)c2OC)cc1 [Kaempferol 3,7,4'-trimethyl ether]  32.6%
15. COc1ccc(-c2oc3cc(OC)c(OC)c(O)c3c(=O)c2OC)cc1OC [Artemetin]  32.8%
16. COc1cc(-c2oc3cc(OC)c(OC)c(O)c3c(=O)c2OC)ccc1O [Chrysosplenetin]  34.2%
17. CC(C)=CCC/C(C)=C/Cc1cc(-c2coc3cc(O)ccc3c2=O)ccc1O [Corylifol A]  36.8%
18. O=c1c(O[C@@H]2O[C@H](CO)[C@@H](O)[C@H](O)[C@H]2O[C@@H]2O[C@H](CO)[C@@H](O)[C@H](O)[C@H]2O)c(-c2ccc(O)c(O)c2)oc2cc(O)cc(O)c12 [Quercetin 3-O-sophoroside]  37.8%
19. C/C=C/c1cc(OC)c2c(c1)[C@@H](C)[C@H](c1ccc3c(c1)OCO3)O2 [(-)-Licarin B]  38.9%
20. O=c1cc(-c2ccc(O)cc2)oc2cc(O)c(O)c(O)c12 [Scutellarein]  42.1%
21. O=C(O[C@H]1[C@H](Oc2c(-c3ccc(O)c(O)c3)oc3cc(O)cc(O)c3c2=O)O[C@H](CO)[C@H](O)[C@@H]1O)c1cc(O)c(O)c(O)c1 [2"-O-Galloylhyperin]  42.4%
22. COc1ccc(-c2coc3cc(OC)ccc3c2=O)cc1 [7,4'-Dimethoxyisoflavone]  44%
23. COc1cc(-c2oc3cc(O)cc(O)c3c(=O)c2O[C@@H]2O[C@H](CO[C@@H]3O[C@@H](C)[C@H](O)[C@@H](O)[C@H]3O)[C@@H](O)[C@H](O)[C@H]2O)ccc1O [Narcissin]  44.5%
24. O=c1c(O[C@@H]2O[C@@H](CO)[C@H](O)[C@H]2O)c(-c2ccc(O)c(O)c2)oc2cc(O)cc(O)c12 [Avicularin]  45.3%
25. O=c1cc(-c2ccc(O)cc2)oc2cc(O[C@@H]3O[C@H](CO)[C@@H](O)[C@H](O)[C@H]3O)cc(O)c12 [Cosmosiin]  46.8%
26. COc1c(O)cc2oc(-c3ccc(O)cc3)cc(=O)c2c1O [Hispidulin]  50%
27. O=C(/C=C/c1ccc(O)c2c1[C@H](C(=O)O)[C@@H](c1ccc(O)c(O)c1)O2)O[C@H](Cc1ccc(O)c(O)c1)C(=O)O [Lithospermic acid]  51.7%
28. COc1ccc(-c2cc(=O)c3c(O)c(OC)c(OC)c(OC)c3o2)cc1OC [5-Demethylnobiletin]  54.3%
29. O=C(O)[C@H]1O[C@@H](Oc2c(O)cc(O)c3c(=O)c(O)c(-c4ccc(O)c(O)c4)oc23)[C@H](O)[C@@H](O)[C@@H]1O [hibifolin]  65.3%

Same assay, conditions: read-out: SrtA relative inhibition rate (%)

In order of falling inhibition at 64 µg/mL:
1. O=C(O)[C@H]1O[C@@H](Oc2c(O)cc(O)c3c(=O)c(O)c(-c4ccc(O)c(O)c4)oc23)[C@H](O)[C@@H](O)[C@@H]1O [hibifolin]  74.6%
2. COC(=O)[C@H]1O[C@@H](Oc2cc3oc(-c4ccc(O)cc4)cc(=O)c3c(O)c2O)[C@H](O)[C@@H](O)[C@@H]1O [Scutellarin Methyl Ester]  73.8%
3. O=c1cc(-c2ccc(O)cc2)oc2c([C@@H]3O[C@H](CO)[C@@H](O)[C@H](O)[C@H]3O)c(O)c([C@@H]3O[C@H](CO)[C@@H](O)[C@H](O)[C@H]3O)c(O)c12 [Vicenin-2]  67.6%
4. C[C@@H]1O[C@@H](Oc2cc(O)c3c(=O)c(O)c(-c4ccc(O)c(O)c4)oc3c2)[C@H](O)[C@H](O)[C@H]1O [Vincetoxicoside B]  57.2%
5. O=C1c2c(O)cc(O)cc2O[C@H](c2ccc(O)c(O)c2)[C@H]1O [Taxifolin]  56%
6. O=c1cc(-c2ccc(Oc3c(O)cc4oc(-c5ccc(O)cc5)cc(=O)c4c3O)cc2)oc2cc(O)cc(O)c12 [Hinokiflavone]  36.2%
7. COc1ccc(-c2oc3cc(O)cc(O)c3c(=O)c2O)cc1O [Tamarixetin]  26.2%
